Measured values from article PMC3894558, “Chemical signatures and new drug targets for gametocytocidal drug development” (Scientific Reports, 2014).
“Also recorded” adds a separate entry of the source. Read-outs that look alike come from different tables or passages of the source. Starred links: 1 amine or outer side, 2 acyl side, 3 side chain; linkers in the order of their positions; H or OH if unused. Positions of bridges follow the written chain, without caps; N, C: chain ends. Non-standard residues stand in square brackets, D forms with d. Residues, ends and D or L forms follow the SMILES beside them. Chains are numbered I, II in the order given. Actinocin(9to1) = Cc1c2oc3c(C)ccc(C(=O)[*:1])c3nc-2c(C(=O)[*:2])c(N)c1=O; NMeV = CN[C@H](C(=O)O)C(C)C; Sar = CNCC(=O)O

Columns and labels:
[1] = system: HepG2 cells; assay: cells; settings: Homo sapiens; for Emax: HepG2, read-out: % Max response
[2] = system: P. falciparum 3D7 gametocytes; assay: alamarBlue gametocyte viability assay, strain 3D7; assay type: cell-based, Plasmodium falciparum; settings: for IC50: Plasmodium falciparum
[3] = system: P. falciparum HB3 gametocytes; assay: alamarBlue gametocyte viability assay, strain HB3; assay type: cell-based, Plasmodium falciparum; settings: Plasmodium falciparum
[4] = system: HepG2 cells; settings: 11 concentrations, 1:3 dilution; Inactive = no significant activity at 46 µM
[5] = system: P. falciparum Dd2 gametocytes; assay: alamarBlue gametocyte viability assay, strain Dd2; assay type: cell-based, Plasmodium falciparum; settings: for IC50: Plasmodium falciparum
[6] = system: Dd2 asexual parasites; set-up: method as in PMID 17116676; settings: cited from earlier work
[7] = system: P. falciparum asexual blood stage parasites; assay: asexual parasite SYBR green assay; assay type: cell-based, Plasmodium falciparum; settings: for IC50: Plasmodium falciparum, SYBR green assay, read-out: IC50 against asexual parasites
[8] = system: mTOR; set-up: method as in PMID 21322566; settings: cited from earlier work
[9] = system: P. falciparum liver stage; set-up: method as in PMID 6285190; settings: read-out: IC50, P. falciparum development in the liver stage; cited from earlier work
[10] = system: Plasmodium berghei ANKA; assay: mouse-mosquito transmission model, oocysts per mosquito midgut; assay type: in vivo, Plasmodium berghei in mice / Anopheles stephensi
[11] = system: P. falciparum asexual blood stage; set-up: method as in PMID 6285190; settings: cited from earlier work
[12] = set-up: method as in PMID 21322566; settings: cited from earlier work
[13] = system: early stages (I and II) of P. falciparum gametocytes; set-up: method as in PMID 6285190; settings: cited from earlier work
[14] = 3D7, P. falciparum 3D7 gametocytes, mean of at least 3 independent experiments, read-out: Gametocyte IC50
[15] = HB3, strain profiling, 11 concentrations, 1:3 dilution, three times, read-out: HB3-gametocytes IC50
[16] = DD2, strain profiling, 11 concentrations, 1:3 dilution, three times, read-out: Dd2-gametocytes IC50
[17] = HB3, read-out: HB3-gametocytes IC50
[18] = DD2, read-out: Dd2-gametocytes IC50

Row | Compound | Emax [1] | IC50 [2, 14] | IC50 [3, 15] | IC50 in HepG2 cells [4] | IC50 [5, 16] | other results
1 | CCN(CCO)CCCOc1ccc2c(Nc3cc(CC(=O)Nc4cccc(F)c4)n[nH]3)ncnc2c1 [AZD-1152-HQPA] | 11% | 743 nM | 1480 nM | Inactive | 1480 nM | –
2 | COc1cccc2c1C(=O)c1c(O)c3c(c(O)c1C2=O)C[C@@](O)(C(=O)CO)C[C@@H]3O[C@H]1C[C@H](N)[C@H](O)[C@H](C)O1 [Adriamycin] | -35% | 526 nM | 935 nM | Inactive | 1050 nM | –
3 | CO[C@H]1O[C@@H]2O[C@@]3(C)CC[C@H]4[C@H](C)CC[C@@H]([C@H]1C)[C@@]24OO3 [Artemether] | 7% | 73 nM | 47 nM | Inactive | 53 nM | IC50 ([2]; 3D7, strain profiling, 11 concentrations, 1:3 dilution, three times, read-out: 3D7-gametocytes IC50): 74 nM
4 | C[C@@H]1CC[C@H]2[C@@H](C)C(=O)O[C@@H]3O[C@@]4(C)CC[C@@H]1[C@]32OO4 [Artemisinin] | 18% | 148 nM | 74 nM | Inactive | 61 nM | –
5 | C[C@H]1[C@@H](O)O[C@@H]2O[C@@]3(C)CC[C@H]4[C@H](C)CC[C@@H]1[C@@]24OO3 [Artenimol (DHA), Artenimol] | 20% | 77 nM | 59 nM | Inactive | 53 nM | –
6 | C[C@H]1[C@H](OC(=O)CCC(=O)O)O[C@@H]2O[C@@]3(C)CC[C@H]4[C@H](C)CC[C@@H]1[C@@]24OO3 [Artesunate] | 18% | 59 nM | 47 nM | Inactive | 30 nM | –
7 | CCN(CC)CCCC(C)Nc1ccnc2cc(Cl)ccc12 (stereo not drawn) [Chloroquine diphosphate] | – | – | – | – | – | IC50 ([2]; 3D7, read-out: 3D7-gametocytes IC50): 253 nM; fold less potent against Dd2 asexual parasites compared to 3D7 [6]: 10 fold; IC50 ([3]; HB3, read-out: HB3-gametocytes IC50, strain profiling, 11 concentrations, 1:3 dilution, three times): 935 nM; reduction of potency against Dd2 gametocytes compared to 3D7 [5]: 3.7 fold; IC50 ([5]; DD2, read-out: Dd2-gametocytes IC50, strain profiling, 11 concentrations, 1:3 dilution, three times): 935 nM
8 | Cc1c2oc3c(C)ccc(C(=O)N[C@@H]4C(=O)N[C@H](C(C)C)C(=O)N5CCC[C@H]5C(=O)N(C)CC(=O)N(C)[C@@H](C(C)C)C(=O)O[C@@H]4C)c3nc-2c(C(=O)N[C@@H]2C(=O)N[C@H](C(C)C)C(=O)N3CCC[C@H]3C(=O)N(C)CC(=O)N(C)[C@@H](C(C)C)C(=O)O[C@@H]2C)c(N)c1=O [Dactinomycin] (I: T[dV]P[Sar][NMeV] / II: T[dV]P[Sar][NMeV]; ester I:1-I:C, II:1-II:C; linker I:N-II:N via Actinocin(9to1)) | 1% | – | – | Inactive | – | IC50 ([2]; 3D7, read-out: Gametocyte IC50): 15 nM; IC50 [3, 17]: 19 nM; IC50 [5, 18]: 33 nM
9 | S=C(SSC(=S)N1CCCCC1)N1CCCCC1 [Dicyclopentamethylenethiuram disulfide] | 0% | – | – | Inactive | – | IC50 ([2]; P. falciparum 3D7 gametocytes, mean of at least 3 independent experiments, read-out: Gametocyte IC50): 274 nM; IC50 [3, 17]: 743 nM; IC50 [5, 18]: 743 nM
10 | CN(C)c1ccc2nc3ccc(=[N+](C)C)cc-3sc2c1 [Methylene blue] | -20% | 307 nM | 935 nM | Inactive | 526 nM | –
11 | O=C1C(=O)c2ncccc2-c2cccnc21 [Phanquinone] | 23% | 109 nM | 37 nM | Inactive | 53 nM | –
12 | CN(C)C(=S)SSC(=S)N(C)C [Thiram] | 23% | 83 nM | 148 nM | Inactive | – | IC50 [5, 18]: 148 nM
13 | CCC(=O)N1CCN(c2ccc(-n3c(=O)ccc4cnc5ccc(-c6cnc7ccccc7c6)cc5c43)cc2C(F)(F)F)CC1 [Torin 1, 1-[4-[4-(1-Oxopropyl)-1-piperazinyl]-3-(trifluoromethyl)phenyl]-9-(3-quinolinyl)-benzo[h]-1,6-naphthyridin-2(1H)-one] | – | – | 3720 nM | – | 5260 nM | fold less potent than Torin 2 against gametocytes [2]: […]; IC50 ([2]; 3D7, read-out: 3D7-gametocytes IC50, strain profiling, 11 concentrations, 1:3 dilution, three times): 6620 nM; IC50 ([2]; 3D7, read-out: Gametocyte IC50, P. falciparum 3D7 gametocytes, mean of at least 3 independent experiments): 1600 nM; times less potent than Torin 2 against asexual parasites [7]: […]; IC50 [7]: 215 nM; IC50 [8]: […]
14 | Nc1ccc(-c2ccc3ncc4ccc(=O)n(-c5cccc(C(F)(F)F)c5)c4c3c2)cn1 [Torin 2, 9-(6-Amino-3-pyridinyl)-1-[3-(trifluoromethyl)phenyl]-benzo[h]-1,6-naphthyridin-2(1H)-one] | -46% | 8 nM | 15 nM | – | 12 nM | IC50 ([1]; HepG2, read-out: IC50 in HepG2 cells): 9350 nM; IC50 [9]: 1.1 nM; exflagellation just prior to mosquito feed, drug- vs vehicle-treated mice ([10]; 1.5 hrs after drug treatment): no difference; also recorded: equivalent to that of the vehicle-treated controls; oocyst production in fed mosquitoes ([10]; single dose 2 mg/kg i.v.): significantly reduced; oocyst production in fed mosquitoes ([10]; single dose 4 mg/kg i.v., 4 mg/kg): almost completely eliminated; also recorded: nearly complete elimination; oocyst production in fed mosquitoes ([10]; two 4 mg/kg doses i.v. 3 hrs apart, feed 1.5 hrs after final treatment): completely block; also recorded: completely prevented; IC50 [7]: 2.75 nM; IC50 [11]: 1.4 nM; oral bioavailability [12]: 51%; IC50 [8]: […]; IC50 [13]: 6.6 nM
15 | CC(=O)Nc1cccc(-n2c(=O)n(C3CC3)c(=O)c3c(Nc4ccc(I)cc4F)n(C)c(=O)c(C)c32)c1 [Trametinib] | 14% | 935 nM | – | Inactive | – | –
